Tests used:
Format in all cases: biochemical
β-lactamase = assay: Cleavage of chromogenic substrates, diazonium salt added to reaction mixture; conditions: releases 3-aminoindole
Description: Cleavage of the β-lactam ring of cefotaxime indole carbamate or cephalothin indole carbamate produces a cascade of electron migration which releases 3-aminoindole.

[1] = biological target: wildtype enzyme, TEM-1 β-lactamase (Escherichia coli, UniProt P62593); assay: Kinetic rate determinations, wild type enzyme; conditions: 300 sec, ranking among enzymes; for rate of cleavage (hydrolysis) of fluorogenic substrate: wild type enzyme, fluorescence 365/440 nm
Protocol: (§1) The fluorogenic β-lactamase substrates of the invention were tested for their ability to be hydrolyzed by β-lactamase with release of the fluorescent moiety. The kinetics of hydrolysis were compared to the kinetics of hydrolysis of nitrocefin. The two fluorogenic substrates tested were hydrolyzed using three mutant β-lactamases found in cephem resistant bacteria to compare the rate of hydrolysis with the wildtype enzyme, TEM-1 (Ambler. Phil. Trans. R. Soc. Lond. 289: 321 (1980); Sougakoff et al. Reviews of Infectious Diseases 10: 879 (1988)).
(§2) Nitrocefin kinetics were determined using a Hewlett-Packard 854A spectrophotometer with Chem Station programing, Hewlett-Packard Company Scientific Instruments Division (Palo Alto, Calif.). The data were fit to an unweighted Michaelis-Menten equation using the non-linear data regression package ENZFITTER (Elsevier-BIOSOFT, Cambridge, United Kingdom). The buffer used for all dilutions was 9:1 (50 mM phosphate buffer pH 7.2: DMSO), designated buffer A. The rate of hydrolysis for nitrocefin was determined at a range of 504-514 nm for 300 sec. […] Rates were determined using from 1-0.004 mL of nitrocefin solution diluted to 1 mL total with buffer A. Rate determining experiments were done using 9 different concentrations of the nitrocefin solution and a 1:25 dilution of each enzyme in buffer A.
(§3) Fluorescence kinetics were determined on a Perkin-Elmer LS-5 fluorescence spectrometer Perkin-Elmer Corp. (Norwalk, Conn.) for duration of 300 sec. […] Rates were determined using the following solutions: a) 10.8 mg cephalothin AMC carbamate dissolved in mL of DMSO diluted to 15 mL with buffer A, and b) 11.9 mg cefotaxime AMC carbamate dissolved in 1 mL DMSO diluted to 15 mL with buffer A. For each experiment 0.1 mL of substrate solution was diluted to 3 mL with buffer A. To this was added 0.03 mL of enzyme solution containing (25:1 dilution of the enzyme in buffer A). Fluorescence was read for 300 sec. The rates were determined for both substrates at this concentration for all enzymes tested.

[2] = biological target: 237(SER) mutant β-lactamase (Escherichia coli, UniProt P62593, A235S); assay: Kinetic rate determinations, 237(SER) mutant
Protocol: as §1, §2, §3

[3] = biological target: 238(SER) mutant β-lactamase (Escherichia coli, UniProt P62593, G236S); assay: Kinetic rate determinations, 238(SER) mutant
Protocol: as §1, §2, §3

[4] = biological target: 104(LYS) mutant β-lactamase (Escherichia coli, UniProt P62593, E102K); assay: Kinetic rate determinations, 104(LYS) mutant
Protocol: as §1, §2, §3

[5] = test system: β-lactamase (wild type and all mutant enzymes); assay: Kinetic rate determinations, fluorogenic substrates, all enzymes; conditions: by the wild type and all mutant enzymes
Protocol: as §1
Fluorescence kinetics were determined on a Perkin-Elmer LS-5 fluorescence spectrometer Perkin-Elmer Corp. (Norwalk, Conn.) for duration of 300 sec. Excitation and emission wavelengths were set to 365 and 440 nm with slits of 10 and 3 nm, respectively. Buffer A was used for all dilutions. […] Rates were determined using the following solutions: a) 10.8 mg cephalothin AMC carbamate dissolved in mL of DMSO diluted to 15 mL with buffer A, and b) 11.9 mg cefotaxime AMC carbamate dissolved in 1 mL DMSO diluted to 15 mL with buffer A. For each experiment 0.1 mL of substrate solution was diluted to 3 mL with buffer A. To this was added 0.03 mL of enzyme solution containing (25:1 dilution of the enzyme in buffer A). Fluorescence was read for 300 sec. The rates were determined for both substrates at this concentration for all enzymes tested.

O=C(Cc1cccs1)N[C@@H]1C(=O)N2C(C(=O)O)=C(COC(=O)Nc3c[nH]c4ccccc34)CS[C@H]12 [cephalothin indole carbamate, Cephalothin Aminoindole Carbamate]
product after cleavage with β-lactamase and addition of various diazonium salts (β-lactamase): produced a colored precipitate

Cc1cc(=O)oc2cc(NC(=O)OCC3=C(C(=O)O)N4C(=O)[C@@H](NC(=O)Cc5cccs5)[C@H]4SC3)ccc12 [cephalothin AMC carbamate, Cephalothin AMC Carbamate]
rate of cleavage (hydrolysis) of fluorogenic substrate [1]: followed closely by the wild type enzyme
rate of cleavage (hydrolysis) of fluorogenic substrate ([2]; fluorescence 365/440 nm, 300 sec, ranking among enzymes): cleaved fastest
rate of cleavage (hydrolysis) of fluorogenic substrate ([3]; 238(SER) mutant, fluorescence 365/440 nm, 300 sec, ranking among enzymes): most slowly
rate of cleavage relative to that of the 237(SER) enzyme ([4]; 104(LYS) mutant, fluorescence 365/440 nm, 300 sec): about half that of the 237(SER) enzyme
rate of cleavage compared between the two fluorogenic substrates [5]: cleaved faster than the cefotaxime AMC carbamate

CO/N=C(\C(=O)N[C@@H]1C(=O)N2C(C(=O)O)=C(COC(=O)Nc3c[nH]c4ccccc34)CS[C@H]12)c1csc(N)n1 [cefotaxime indole carbamate, Cefotaxime Indole Carbamate]
product after cleavage with β-lactamase and addition of various diazonium salts (β-lactamase): produced a colored precipitate

O=C(Cc1cccs1)N[C@@H]1C(=O)N2C(C(=O)O)=C(/C=C/c3ccc([N+](=O)[O-])cc3[N+](=O)[O-])CS[C@H]12 [nitrocefin, Nitrocefin, reference compound]
rate of hydrolysis for nitrocefin ([1]; wild type, spectrophotometric 504-514 nm): followed by wild type
rate of hydrolysis for nitrocefin ([2]; spectrophotometric 504-514 nm, 300 sec, ranking among enzymes): fastest
rate of hydrolysis for nitrocefin ([3]; 238(SER) mutant, spectrophotometric 504-514 nm, 300 sec, ranking among enzymes): then the 104(LYS) and 238(SER) mutants
rate of hydrolysis for nitrocefin ([4]; 104(LYS) mutant, spectrophotometric 504-514 nm, 300 sec, ranking among enzymes): then the 104(LYS) and 238(SER) mutants

CO/N=C(\C(=O)N[C@@H]1C(=O)N2C(C(=O)O)=C(COC(=O)Nc3ccc4c(C)cc(=O)oc4c3)CS[C@H]12)c1csc(N)n1 [cefotaxime AMC carbamate, Cefotaxime AMC Carbamate]
rate of cleavage (hydrolysis) of fluorogenic substrate [1]: cleaved most slowly
increase in hydrolysis rate in comparison to wild type β-lactamase ([2]; fluorescence): 60%
increase in the rate of hydrolysis in comparison to wild type β-lactamase ([3]; 238(SER) mutation, fluorescence): greater than 100%
increase in the rate of hydrolysis in comparison to wild type β-lactamase ([4]; 104(LYS) mutation, fluorescence): greater than 100%

From patent US5514561A, “Fluorogenic and chromogenic β-lactamase substrates” (priority 1994, dated 1996)
